Measurements as given in patent US7888464B2, “Hepatitis C virus inhibitors” (Bristol-Myers Squibb Company, priority 2006, dated 2011).
Read-outs that look alike come from different tables or passages of the source.

Assays:
[1] = target: T1, HCV NS3/4A protease complex, BMS strain (genotype 1a) (UniProt P27958, species not given/STRAIN_BMS); assay: FRET peptide assay to monitor HCV NS3/4A proteolytic activity (BMS strain); format: biochemical; settings: NS3/4A BMS strain, read-out: HCV Protease (IC50)
T1 construct: "DNA encoding the recombinant HCV NS3/4A protease complex (amino acids 1027 to 1711) for these strains" (said of H77 and J4L6S, not expressly of BMS); given for the H77/J4L6S constructs only
T1 sequence (P27958 1027-1657, stated change not applied, one chain of several): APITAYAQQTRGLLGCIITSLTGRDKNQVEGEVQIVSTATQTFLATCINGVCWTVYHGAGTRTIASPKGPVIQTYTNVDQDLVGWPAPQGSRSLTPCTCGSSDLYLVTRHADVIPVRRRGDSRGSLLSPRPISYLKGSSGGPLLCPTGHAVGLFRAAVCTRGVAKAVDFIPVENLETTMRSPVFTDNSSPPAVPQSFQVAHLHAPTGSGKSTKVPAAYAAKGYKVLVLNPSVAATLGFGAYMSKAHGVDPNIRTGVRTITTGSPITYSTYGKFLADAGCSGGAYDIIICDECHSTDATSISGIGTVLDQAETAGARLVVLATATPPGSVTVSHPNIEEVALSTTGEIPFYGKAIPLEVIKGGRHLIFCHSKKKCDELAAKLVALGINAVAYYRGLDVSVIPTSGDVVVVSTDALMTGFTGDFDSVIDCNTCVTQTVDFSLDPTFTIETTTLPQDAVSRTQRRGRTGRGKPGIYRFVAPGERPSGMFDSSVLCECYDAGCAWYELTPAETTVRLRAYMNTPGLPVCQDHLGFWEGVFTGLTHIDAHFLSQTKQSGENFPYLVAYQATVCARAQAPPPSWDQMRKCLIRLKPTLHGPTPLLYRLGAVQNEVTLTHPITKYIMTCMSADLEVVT
Source text: HCV NS3 protease complexes, derived from the BMS strain, H77 strain or J4L6S strain, were generated, as described below. These purified recombinant proteins were generated for use in a homogeneous assay (see below) to provide an indication of how effective compounds of the present disclosure would be in inhibiting HCV NS3 proteolytic activity.
Serum from an HCV-infected patient was obtained from Dr. T. Wright, San Francisco Hospital. An engineered full-length cDNA (compliment deoxyribonucleic acid) template of the HCV genome (BMS strain) was constructed from DNA fragments obtained by reverse transcription-PCR(RT-PCR) of serum RNA (ribonucleic acid) and using primers selected on the basis of homology between other genotype la strains. From the determination of the entire genome sequence, a genotype la was assigned to the HCV isolate according to the classification of Simmonds et al. (See P Simmonds, K A Rose, S Graham, S W Chan, F McOmish, B C Dow, E A Follett, P L Yap and H Marsden, J. Clin. Microbiol., 31(6), 1493-1503 (1993)). […] The infectious clones, H77 (1a genotype) and J4L6S (1b genotype) were obtained from R. Purcell (NIH) and the sequences are published in Genbank (AAB67036, see Yanagi, M., Purcell, R. H., Emerson, S. U. and Bukh, J. Proc. Natl. Acad. Sci. U.S.A. 94(16), 8738-8743 (1997); AF054247, see Yanagi, M., St Claire, M., Shapiro, M., Emerson, S. U., Purcell, R. H. and Bukh, J, Virology 244 (1), 161-172. (1998)).
The H77 and J4L6S strains were used for production of recombinant NS3/4A protease complexes. DNA encoding the recombinant HCV NS3/4A protease complex (amino acids 1027 to 1711) for these strains were manipulated as described by P. Gallinari et al. (see Gallinari P, Paolini C, Brennan D, Nardi C, Steinkuhler C, De Francesco R. Biochemistry. 38(17):5620-32, (1999)). Briefly, a three-lysine solubilizing tail was added at the 3′-end of the NS4A coding region. The cysteine in the P1 position of the NS4A-NS4B cleavage site (amino acid 1711) was changed to a glycine to avoid the proteolytic cleavage of the lysine tag. Furthermore, a cysteine to serine mutation was introduced by PCR at amino acid position 1454 to prevent the autolytic cleavage in the NS3 helicase domain. The variant DNA fragment was cloned in the pET21b bacterial expression vector (Novagen) and the NS3/4A complex was expressed in Escherichia. coli strain BL21 (DE3) (Invitrogen) following the protocol described by P. Gallinari et al. (see Gallinari P, Brennan D, Nardi C, Brunetti M, Tomei L, Steinkuhler C, De Francesco R., J. Virol. 72(8):6758-69 (1998)) with modifications. Briefly, the NS3/4A protease complex expression was induced with 0.5 millimolar (mM) Isopropyl β-D-1-thiogalactopyranoside (IPTG) for 22 hours (h) at 20° C. A typical fermentation (1 Liter (L)) yielded approximately 10 grams (g) of wet cell paste. The cells were resuspended in lysis buffer (10 mL/g) consisting of 25 mM N-(2-Hydroxyethyl)piperazine-N′-(2-Ethane Sulfonic acid) (HEPES), pH 7.5, 20% glycerol, 500 mM Sodium Chloride (NaCl), 0.5% Triton X-100, 1 microgram/milliliter (“μg/mL”) lysozyme, 5 mM Magnesium Chloride (MgCl2), 1 μg/ml DnaseI, 5 mM β-Mercaptoethanol (βME), Protease inhibitor-Ethylenediamine Tetraacetic acid (EDTA) free (Roche), homogenized and incubated for 20 minutes (min) at 4° C. The homogenate was sonicated and clarified by ultra-centrifugation at 235000 g for 1 hour (h) at 4° C. Imidazole was added to the supernatant to a final concentration of 15 mM and the pH adjusted to 8.0. The crude protein extract was loaded on a Nickel-Nitrilotriacetic acid (Ni-NTA) column pre-equilibrated with buffer B (25 mM HEPES, pH 8.0, 20% glycerol, 500 mM NaCl, 0.5% Triton X-100, 15 mM imidazole, 5 mM βME). The sample was loaded at a flow rate of 1 mL/min. The column was washed with 15 column volumes of buffer C (same as buffer B except with 0.2% Triton X-100). The protein was eluted with 5 column volumes of buffer D (same as buffer C except with 200 mM Imidazole). […]

[2] = system: HCV replicon (strain 1b) in HUH-7 cells; assay: HCV replicon FRET assay; format: cell-based; settings: Hepatitis C virus
Source text: An HCV replicon whole cell system was established as described by Lohmann V, Korner F, Koch J, Herian U, Theilmann L, Bartenschlager R., Science 285(5424): 110-3 (1999). This system enabled us to evaluate the effects of our HCV Protease compounds on HCV RNA replication. Briefly, using the HCV strain 1b sequence described in the Lohmann paper (Assession number: AJ238799), an HCV cDNA was synthesized by Operon Technologies, Inc. (Alameda, Calif.), and the full-length replicon was then assembled in plasmid pGem9zf(+) (Promega, Madison, Wis.) using standard molecular biology techniques. The replicon consists of (i) the HCV 5′ UTR fused to the first 12 amino acids of the capsid protein, (ii) the neomycin phosphotransferase gene (neo), (iii) the IRES from encephalomyocarditis virus (EMCV), and (iv) HCV NS3 to NS5B genes and the HCV 3′ UTR. Plasmid DNAs were linearized with ScaI and RNA transcripts were synthesized in vitro using the T7 MegaScript transcription kit (Ambion, Austin, Tex.) according to manufacturer's directions. In vitro transcripts of the cDNA were transfected into the human hepatoma cell line, HUH-7. […] Resulting cell lines were characterized for positive and negative strand RNA production and protein production over time.
The HCV replicon FRET assay was developed to monitor the inhibitory effects of compounds described in the disclosure on HCV viral replication. HUH-7 cells, constitutively expressing the HCV replicon, were grown in Dulbecco's Modified Eagle Media (DMEM) (Gibco-BRL) containing 10% Fetal calf serum (FCS) (Sigma) and 1 mg/ml G418 (Gibco-BRL). Cells were seeded the night before (1.5×10^4 cells/well) in 96-well tissue-culture sterile plates. Compound and no compound controls were prepared in DMEM containing 4% FCS, 1:100 Penicillin/Streptomysin (Gibco-BRL), 1:100 L-glutamine and 5% DMSO in the dilution plate (0.5% DMSO final concentration in the assay). Compound/DMSO mixes were added to the cells and incubated for 4 days at 37° C. After 4 days, cells were first assessed for cytotoxicity using alamar Blue (Trek Diagnotstic Systems) for a CC50 reading. The toxicity of compound (CC50) was determined by adding 1/10th volume of alamar Blue to the media incubating the cells. After 4 h, the fluorescence signal from each well was read, with an excitation wavelength at 530 nm and an emission wavelength of 580 nm, using the Cytofluor Series 4000 (Perspective Biosystems). Plates were then rinsed thoroughly with Phosphate-Buffered Saline (PBS) (3 times 150 μl). The cells were lysed with 25 μl of a lysis assay reagent containing an HCV protease substrate (5× cell Luciferase cell culture lysis reagent (Promega #E153A) diluted to 1× with distilled water, NaCl added to 150 mM final, the FRET peptide substrate (as described for the enzyme assay above) diluted to 10 μM final from a 2 mM stock in 100% DMSO. The plate was then placed into the Cytofluor 4000 instrument which had been set to 340 nm excitation/490 nm emission, automatic mode for 21 cycles and the plate read in a kinetic mode. EC50 determinations were carried out as described for the IC50 determinations.

[3] = activity range symbols of Table 2
[4] = Huh-7, read-out: HCV Pro Replicon (EC50)

Structure (SMILES)	IC50 [1, 3]	EC50 [2, 4]	IC50 ([1]; numeric cells of Table 2)	EC50 ([2]; Huh-7, HCV replicon, numeric cells of Table 2, read-out: HCV Pro Replicon (EC50))
C=C[C@@H]1C[C@]1(NC(=O)[C@@H]1C[C@@](OC)(c2ccc(-c3ccccc3)cc2)CN1C(=O)[C@@H](NC(=O)NC(C)(C)C)C(C)(C)C)C(=O)NS(=O)(=O)C1CC1 [Cmpd 206, (2S,4R)-4-Biphenyl-4-yl-1-[(S)-2-(3-tert-butyl-ureido)-3,3-dimethyl-butyryl]-4-methoxy-pyrrolidine-2-carboxylic acid ((1R,2S)-1-cyclopropanesulfonylaminocarbonyl-2-vinyl-cyclopropyl)-amide]	0.001 to 0.05 µM	0.001 to 0.05 µM	–	–
C=C[C@@H]1C[C@]1(NC(=O)[C@@H]1C[C@@](OCc2ccccc2)(c2ccc(-c3ccccc3)cc2)CN1C(=O)[C@@H](NC(=O)OC(C)(C)C)C(C)(C)C)C(=O)NS(=O)(=O)C1CC1 [Cmpd 108]	0.001 to 0.05 µM	0.001 to 0.05 µM	–	–
C=C[C@@H]1C[C@]1(NC(=O)[C@@H]1C[C@@](OC)(c2ccc(-c3ccccc3)cc2)CN1C(=O)[C@H](Nc1ccc(F)c(F)c1)C(C)(C)C)C(=O)NS(=O)(=O)C1CC1 [Cmpd 210, (2S,4R)-4-Biphenyl-4-yl-1-[(R)-2-(3,4-difluoro-phenylamino)-3,3-dimethyl-butyryl]-4-methoxy-pyrrolidine-2-carboxylic acid ((1R,2S)-1-cyclopropanesulfonylaminocarbonyl-2-vinyl-cyclopropyl)-amide]	> 0.5 µM	> 0.5 µM	–	–
C=C[C@@H]1C[C@]1(NC(=O)[C@@H]1C[C@@](OC)(c2ccc(-c3ccccc3)cc2)CN1C(=O)[C@@H](NC(=O)OC(C)(C)C)C(C)C)C(=O)NS(=O)(=O)C1CC1 [Cmpd 201, {(S)-1-[(2S,4R)-4-Biphenyl-4-yl-2-((S)-(1R,2S)-1-cyclopropanesulfonylaminocarbonyl-2-vinyl-cyclopropylcarbamoyl)-4-methoxy-pyrrolidine-1-carbonyl]-2-methyl-propyl}-carbamic acid tert-butyl ester]	0.001 to 0.05 µM	0.05 to 0.5 µM	–	–
C=C[C@@H]1C[C@]1(NC(=O)[C@@H]1C[C@@](OC)(c2ccc(-c3ccccc3)cc2)CN1C(=O)[C@@H](NC(=O)OC(C)(C)C)C(C)CC)C(=O)NS(=O)(=O)C1CC1 (stereo partly drawn) [Cmpd 202, {(S)-1-[(2S,4R)-4-Biphenyl-4-yl-2-((S)-(1R,2S)-1-cyclopropanesulfonylaminocarbonyl-2-vinyl-cyclopropylcarbamoyl)-4-methoxy-pyrrolidine-1-carbonyl]-2-methyl-butyl}-carbamic acid tert-butyl ester]	0.001 to 0.05 µM	0.05 to 0.5 µM	–	–
C=C[C@@H]1C[C@]1(NC(=O)[C@@H]1C[C@@](OC)(c2ccc(-c3ccccc3)cc2)CN1C(=O)[C@H](Cc1ccc(C(C)(C)C)cc1)NC(=O)OC(C)(C)C)C(=O)NS(=O)(=O)C1CC1 [Cmpd 211]	–	–	1.6 µM	–
C=C[C@@H]1C[C@]1(NC(=O)[C@@H]1C[C@@](OC)(c2ccc(-c3ccccc3)cc2)CN1C(=O)[C@H](Nc1cccc(OC)c1)C(C)(C)C)C(=O)NS(=O)(=O)C1CC1 [Cmpd 208, (2S,4R)-4-Biphenyl-4-yl-4-methoxy-1-[(R)-2-(3-methoxy-phenylamino)-3,3-dimethyl-butyryl]-pyrrolidine-2-carboxylic acid ((1R,2S)-1-cyclopropanesulfonylaminocarbonyl-2-vinyl-cyclopropyl)-amide]	–	–	0.315 µM	1.3 µM
C=C[C@@H]1C[C@]1(NC(=O)[C@@H]1C[C@@](OC)(c2ccc(-c3ccccc3)cc2)CN1C(=O)[C@@H](NC(=O)NC12CC3CC(CC(C3)C1)C2)C(C)(C)C)C(=O)NS(=O)(=O)C1CC1 [Cmpd 205, (2S,4R)-1-[(S)-2-(3-Adamantan-1-yl-ureido)-3,3-dimethyl-butyryl]-4-biphenyl-4-yl-4-methoxy-pyrrolidine-2-carboxylic acid ((1R,2S)-1-cyclopropanesulfonylaminocarbonyl-2-vinyl-cyclopropyl)-amide]	0.001 to 0.05 µM	0.001 to 0.05 µM	–	–
COC1(c2ccc(-c3ccccc3)cc2)CC(C(=O)NC2(C(=O)NS(=O)(=O)C3CC3)CC2C(F)F)N(C(=O)C(NC(=O)OC(C)(C)C)C(C)(C)C)C1 (stereo not shown) [Cmpd 109]	0.001 to 0.05 µM	0.05 to 0.5 µM	–	–
CC[C@@H]1C[C@]1(NC(=O)[C@@H]1C[C@@](OC)(c2ccc(-c3ccccc3)cc2)CN1C(=O)[C@@H](NC(=O)OC(C)(C)C)C(C)(C)C)C(=O)NS(=O)(=O)C1CC1 [Cmpd 110]	0.001 to 0.05 µM	0.05 to 0.5 µM	–	–
